Test results as given in patent US9113629B2, “4-amino-6-(4-substituted-phenyl)-picolinates and 6-amino-2-(4-substituted-phenyl)-pyrimidine-4-carboxylates and their use as herbicides” (DOW AGROSCIENCES LLC, priority 2013, dated 2015).
Read-outs that look alike come from different tables or passages of the source.

Tested on: test plant species in Direct Seeded Rice
Assay: Postemergence herbicidal activity in direct seeded rice (Table 13)
Format: in vivo
Conditions: for GR50 BRAPP / GR80 BRAPP / GR50 CYPSS / GR80 CYPSS / GR50 ECHSS / GR80 ECHSS / GR50 LEFSS / GR80 LEFSS / GR20 ORYSS / GR50 SCPJU / GR80 SCPJU / GR50 SEBEX / GR80 SEBEX: probit analysis; for GR20 ORYSS: ORYSS: Oryza sativa (crop); for pest or weed control at 35 g/ha / pest or weed control at 70 g/ha: post-emergence, 504 h; for pest or weed control at 35 g/ha: 35 g ai/ha; for pest or weed control at 70 g/ha: 70 g ai/ha
Excerpt: Seeds or nutlets of the desired test plant species were planted in a soil matrix prepared by mixing a loam soil (43 percent silt, 19 percent clay, and 38 percent sand, with a pH of about 8.1 and an organic matter content of about 1.5 percent) and river sand in an 80 to 20 ratio. The soil matrix was contained in plastic pots with a surface area of 139.7 cm^2. When required to ensure good germination and healthy plants, a fungicide treatment and/or other chemical or physical treatment was applied. The plants were grown for 10-17 d in a greenhouse with an approximate 14-h photoperiod which was maintained at about 29° C. during the day and 26° C. during the night. Nutrients and water were added on a regular basis and supplemental lighting was provided with overhead metal halide 1000-Watt lamps as necessary. The plants were employed for testing when they reached the second or third true leaf stage. A weighed amount, determined by the highest rate to be tested, of each test compound was placed in 25 mL glass vials and dissolved in a volume of 97:3 v/v acetone-DMSO to obtain 12× stock solutions. […] The concentrated stock solutions were added to the spray solutions so that the final acetone and DMSO concentrations were 16.2% and 0.5%, respectively. Spray solutions were diluted to the appropriate final concentrations with the addition of 10 mL of an aqueous mixture of 1.5% (v/v) Agri-dex crop oil concentrate. […] Compound requirements are based upon a 12 mL application volume at a rate of 187 L/ha. Formulated compounds were applied to the plant material with an overhead Mandel track sprayer equipped with […] nozzles calibrated to deliver 187 L/ha over an application area of 0.503 square meters (m^2) at a spray height of 18 inches (43 cm) above average plant canopy height. Control plants were sprayed in the same manner with the solvent blank. The treated plants and control plants were placed in a greenhouse as described above and watered by sub-irrigation to prevent wash-off of the test compounds. After 20-22 days, the condition of the test plants, compared with that of the untreated plants, was determined visually and scored on a scale of 0 to 100 percent where 0 corresponds to no injury and 100 corresponds to complete kill. By applying the well-accepted probit analysis as described by J. Berkson in Journal of the American Statistical Society, 48, 565 (1953) and by D. Finney in “Probit Analysis” Cambridge University Press (1952), the above data can be used to calculate GR20, GR50, GR80 and GR90 values, which are defined as growth reduction factors that correspond to the effective dose of herbicide required to kill or control 20 percent, 50 percent, 80 percent or 90 percent, respectively, of a target plant.

[1] = BRAPP: broadleaf signalgrass, Brachiaria platyphylla
[2] = CYPSS: sedge (Cyperus difformis, esculentus, iria)
[3] = ECHSS: barnyardgrass (Echinochloa crus-galli), junglerice (Echinochloa colonum)
[4] = LEFSS: sprangletop (Leptochloa chinensis, Leptochloa dubia)
[5] = SCPJU: Japanese bulrush, Scirpus juncoides
[6] = SEBEX: hemp sesbania, Sesbania exaltata
[7] = BRAPP: broadleaf signalgrass, Brachiaria platyphylla, read-out: Visual Growth Reduction (%) 21 Days After Application BRAPP
[8] = CYPSS: sedge (Cyperus difformis, esculentus, iria), read-out: Visual Growth Reduction (%) 21 Days After Application CYPSS
[9] = ECHSS: barnyardgrass (Echinochloa crus-galli), junglerice (Echinochloa colonum), read-out: Visual Growth Reduction (%) 21 Days After Application ECHSS
[10] = LEFSS: sprangletop (Leptochloa chinensis, Leptochloa dubia), read-out: Visual Growth Reduction (%) 21 Days After Application LEFSS
[11] = ORYSS: Oryza sativa, read-out: Visual Growth Reduction (%) 21 Days After Application ORYSS
[12] = SCPJU: Japanese bulrush, Scirpus juncoides, read-out: Visual Growth Reduction (%) 21 Days After Application SCPJU
[13] = SEBEX: hemp sesbania, Sesbania exaltata, read-out: Visual Growth Reduction (%) 21 Days After Application SEBEX

Question: How did the “GR50 BRAPP” value [1] turn out when `Nc1cc(-c2ccc(Br)cc2F)nc(C(=O)O)c1Cl` [Compound 74] was run?
Answer: 1 g ai/ha

Question: And the “GR80 BRAPP” value [1]?
Answer: 5 g ai/ha

Question: What about the “GR50 CYPSS” value [2] of the same molecule?
Answer: 5 g ai/ha

Question: And the “GR80 CYPSS” value [2]?
Answer: 10 g ai/ha

Question: And the “GR50 ECHSS” value [3]?
Answer: 1 g ai/ha

Question: And the “GR80 ECHSS” value [3]?
Answer: 1 g ai/ha

Question: And the “GR50 LEFSS” value [4]?
Answer: 6 g ai/ha

Question: What about the “GR80 LEFSS” value [4] of the same molecule?
Answer: 13 g ai/ha

Question: And the “GR20 ORYSS” value?
Answer: 4 g ai/ha

Question: And the “GR50 SCPJU” value [5]?
Answer: 1 g ai/ha

Question: And the “GR80 SCPJU” value [5]?
Answer: 1 g ai/ha

Question: What about the “GR50 SEBEX” value [6] of the same molecule?
Answer: 1 g ai/ha

Question: And the “GR80 SEBEX” value [6]?
Answer: 1 g ai/ha

Question: And the pest or weed control at 35 g/ha [7]?
Answer: 95 to 100%

Question: And the pest or weed control at 70 g/ha [7]?
Answer: 95 to 100%

Question: And the pest or weed control at 35 g/ha [8]?
Answer: 95 to 100%

Question: And the pest or weed control at 70 g/ha [8]?
Answer: 95 to 100%

Question: And the pest or weed control at 35 g/ha [9]?
Answer: 95 to 100%

Question: And the pest or weed control at 70 g/ha [9]?
Answer: 95 to 100%

Question: And the pest or weed control at 35 g/ha [10]?
Answer: 95 to 100%

Question: And the pest or weed control at 70 g/ha [10]?
Answer: 95 to 100%

Question: And the pest or weed control at 35 g/ha [11]?
Answer: 60 to 74%

Question: And the pest or weed control at 70 g/ha [11]?
Answer: 60 to 74%

Question: And the pest or weed control at 35 g/ha [12]?
Answer: 95 to 100%

Question: And the pest or weed control at 70 g/ha [12]?
Answer: 95 to 100%

Question: And the pest or weed control at 35 g/ha [13]?
Answer: 95 to 100%

Question: What about the pest or weed control at 70 g/ha [13] of the same molecule?
Answer: 95 to 100%

Question: Which “GR50 BRAPP” value [1] does the source give for `Nc1c(Cl)c(C(=O)O)nc(-c2ccc(C(F)(F)F)c(F)c2)c1Cl` [Compound 146] here?
Answer: 8 g ai/ha

Question: What about the “GR80 BRAPP” value [1] of the same molecule?
Answer: 29 g ai/ha

Question: What about the “GR50 CYPSS” value [2] of the same molecule?
Answer: 1 g ai/ha

Question: And the “GR80 CYPSS” value [2]?
Answer: 1 g ai/ha

Question: And the “GR50 ECHSS” value [3]?
Answer: 17 g ai/ha

Question: What about the “GR80 ECHSS” value [3] of the same molecule?
Answer: 32 g ai/ha

Question: And the “GR50 LEFSS” value [4]?
Answer: 44 g ai/ha

Question: What about the “GR80 LEFSS” value [4] of the same molecule?
Answer: 87 g ai/ha

Question: And the “GR20 ORYSS” value?
Answer: 18 g ai/ha

Question: What about the “GR50 SCPJU” value [5] of the same molecule?
Answer: 1 g ai/ha

Question: And the “GR80 SCPJU” value [5]?
Answer: 1 g ai/ha

Question: What about the “GR50 SEBEX” value [6] of the same molecule?
Answer: 3 g ai/ha

Question: What about the “GR80 SEBEX” value [6] of the same molecule?
Answer: 4 g ai/ha

Question: What about the pest or weed control at 35 g/ha [7] of the same molecule?
Answer: 60 to 74%

Question: And the pest or weed control at 70 g/ha [7]?
Answer: 95 to 100%

Question: What about the pest or weed control at 35 g/ha [8] of the same molecule?
Answer: 95 to 100%

Question: And the pest or weed control at 70 g/ha [8]?
Answer: 95 to 100%

Question: And the pest or weed control at 35 g/ha [9]?
Answer: 85 to 94%

Question: What about the pest or weed control at 70 g/ha [9] of the same molecule?
Answer: 85 to 94%

Question: What about the pest or weed control at 35 g/ha [10] of the same molecule?
Answer: 0 to 29%

Question: And the pest or weed control at 70 g/ha [10]?
Answer: 75 to 84%

Question: And the pest or weed control at 35 g/ha [11]?
Answer: 30 to 44%

Question: What about the pest or weed control at 70 g/ha [11] of the same molecule?
Answer: 60 to 74%

Question: And the pest or weed control at 35 g/ha [12]?
Answer: 95 to 100%

Question: And the pest or weed control at 70 g/ha [12]?
Answer: 95 to 100%

Question: And the pest or weed control at 35 g/ha [13]?
Answer: 95 to 100%

Question: What about the pest or weed control at 70 g/ha [13] of the same molecule?
Answer: 95 to 100%

Question: What does the source list for `Nc1c(Cl)c(C(=O)O)nc(-c2ccc(Br)cc2)c1Cl` [Compound 125]?
Answer: GR50 BRAPP [1]: 46 g ai/ha; GR80 BRAPP [1]: >70 g ai/ha; GR50 CYPSS [2]: 4 g ai/ha; GR80 CYPSS [2]: 10 g ai/ha; GR50 ECHSS [3]: 40 g ai/ha; GR80 ECHSS [3]: >70 g ai/ha; GR50 LEFSS [4]: 43 g ai/ha; GR80 LEFSS [4]: >70 g ai/ha; GR20 ORYSS: 0 g ai/ha; GR50 SCPJU [5]: 1 g ai/ha; GR80 SCPJU [5]: 1 g ai/ha; GR50 SEBEX [6]: 1 g ai/ha; GR80 SEBEX [6]: 1 g ai/ha; pest or weed control at 35 g/ha [7]: 45 to 59%; pest or weed control at 70 g/ha [7]: 60 to 74%; pest or weed control at 35 g/ha [8]: 95 to 100%; pest or weed control at 70 g/ha [8]: 95 to 100%; pest or weed control at 35 g/ha [9]: 45 to 59%; pest or weed control at 70 g/ha [9]: 60 to 74%; pest or weed control at 35 g/ha [10]: 45 to 59%; pest or weed control at 70 g/ha [10]: 60 to 74%; pest or weed control at 35 g/ha [11]: 0 to 29%; pest or weed control at 70 g/ha [11]: 0 to 29%; pest or weed control at 35 g/ha [12]: 95 to 100%; pest or weed control at 70 g/ha [12]: 95 to 100%; pest or weed control at 35 g/ha [13]: 95 to 100%; pest or weed control at 70 g/ha [13]: 95 to 100%

Question: With `COC(=O)c1nc(-c2ccc(Br)cc2F)cc(N)c1Cl` [Compound 93] as the molecule, how does the “GR50 BRAPP” value [1] read?
Answer: 1 g ai/ha

Question: What about the “GR80 BRAPP” value [1] of the same molecule?
Answer: 1 g ai/ha

Question: And the “GR50 CYPSS” value [2]?
Answer: 1 g ai/ha

Question: What about the “GR80 CYPSS” value [2] of the same molecule?
Answer: 2 g ai/ha

Question: And the “GR50 ECHSS” value [3]?
Answer: 1 g ai/ha

Question: What about the “GR80 ECHSS” value [3] of the same molecule?
Answer: 1 g ai/ha

Question: What about the “GR50 LEFSS” value [4] of the same molecule?
Answer: 6 g ai/ha

Question: And the “GR80 LEFSS” value [4]?
Answer: 11 g ai/ha

Question: And the “GR20 ORYSS” value?
Answer: 13 g ai/ha

Question: What about the “GR50 SCPJU” value [5] of the same molecule?
Answer: 1 g ai/ha

Question: And the “GR80 SCPJU” value [5]?
Answer: 1 g ai/ha

Question: And the “GR50 SEBEX” value [6]?
Answer: 1 g ai/ha

Question: What about the “GR80 SEBEX” value [6] of the same molecule?
Answer: 1 g ai/ha

Question: And the pest or weed control at 35 g/ha [7]?
Answer: 95 to 100%

Question: What about the pest or weed control at 70 g/ha [7] of the same molecule?
Answer: 95 to 100%

Question: And the pest or weed control at 35 g/ha [8]?
Answer: 95 to 100%

Question: And the pest or weed control at 70 g/ha [8]?
Answer: 95 to 100%

Question: What about the pest or weed control at 35 g/ha [9] of the same molecule?
Answer: 95 to 100%

Question: And the pest or weed control at 70 g/ha [9]?
Answer: 95 to 100%

Question: And the pest or weed control at 35 g/ha [10]?
Answer: 95 to 100%

Question: And the pest or weed control at 70 g/ha [10]?
Answer: 95 to 100%

Question: What about the pest or weed control at 35 g/ha [11] of the same molecule?
Answer: 45 to 59%

Question: And the pest or weed control at 70 g/ha [11]?
Answer: 60 to 74%

Question: And the pest or weed control at 35 g/ha [12]?
Answer: 95 to 100%

Question: What about the pest or weed control at 70 g/ha [12] of the same molecule?
Answer: 95 to 100%

Question: What about the pest or weed control at 35 g/ha [13] of the same molecule?
Answer: 95 to 100%

Question: What about the pest or weed control at 70 g/ha [13] of the same molecule?
Answer: 95 to 100%
